From US6809065B2, “Herbicide containing substituted pyrazole derivative as active ingredient” (SDS Biotech K.K., priority 2001, dated 2004)

Columns and labels:
Stellaria media [1] = test: Upland soil treatment (Test Example 2); type: in vivo; settings: soil surface treatment next day after sowing, wettable powder, 1 kg active ingredient per hectare, evaluated 21st day after application
Summary of the method: (§1)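 Pre-emergence soil treatment: day after sowing, WP formulation diluted in water, applied uniformly to soil surface at 1 kg a.i./ha. Seeds sown ~1 cm deep in upland soil. Visual index read 21 d after application (weeds: high = effective; crop: low = safe).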

Digitaria adscendens [2] = test: Upland soil treatment (Test Example 2); type: in vivo; settings: soil surface treatment next day after sowing, wettable powder, 1 kg active ingredient per hectare, evaluated 21st day after application
Summary of the method: as §1

Setaria viridis [3] = test: Upland soil treatment (Test Example 2); type: in vivo; settings: soil surface treatment next day after sowing, wettable powder, 1 kg active ingredient per hectare, evaluated 21st day after application
Summary of the method: as §1

Chenopodium album [4] = test: Upland soil treatment (Test Example 2); type: in vivo; settings: soil surface treatment next day after sowing, wettable powder, 1 kg active ingredient per hectare, evaluated 21st day after application
Summary of the method: as §1

Stellaria media [5] = test: Upland field foliage treatment (Test Example 1); type: in vivo; settings: foliage treatment 14th day after sowing, wettable powder, 1 kg active ingredient per hectare, evaluated 21st day after application
Summary of the method: (§2)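 Weeds and crops were sown in upland soil under about 1 cm cover, and a wettable powder diluted in water was sprayed on the foliage 14 days after sowing at 1 kg active ingredient per hectare. Scoring was done 21 days after application on an index scale, where higher weed scores mean stronger herbicidal effect and lower crop scores mean greater crop safety.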

Digitaria adscendens [6] = test: Upland field foliage treatment (Test Example 1); type: in vivo; settings: foliage treatment 14th day after sowing, wettable powder, 1 kg active ingredient per hectare, evaluated 21st day after application
Summary of the method: as §2

Setaria viridis [7] = test: Upland field foliage treatment (Test Example 1); type: in vivo; settings: foliage treatment 14th day after sowing, wettable powder, 1 kg active ingredient per hectare, evaluated 21st day after application
Summary of the method: as §2

Chenopodium album [8] = test: Upland field foliage treatment (Test Example 1); type: in vivo; settings: foliage treatment 14th day after sowing, wettable powder, 1 kg active ingredient per hectare, evaluated 21st day after application
Summary of the method: as §2

soybean (Glycine max) [9] = test: Upland field foliage treatment (Test Example 1), crop; type: in vivo; settings: foliage treatment 14th day after sowing, 1 kg active ingredient per hectare, evaluated 21st day, lower index = higher safety
Summary of the method: as §2

[10] = system: wheat (Triticum aestivum); test: as above; type: in vivo; settings: foliage treatment 14th day after sowing, 1 kg active ingredient per hectare, evaluated 21st day, lower index = higher safety
Summary of the method: as §2

Echinochloa spp. = test: Paddy field treatment (Test Example 3); type: in vivo, Echinochloa crusgalli; settings: paddy pot, submerged 4 cm, dropped on water surface 10th day after transplantation, 1 kg active ingredient per hectare, evaluated 21st day
Summary of the method: (§3)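 Weeds sown in puddled paddy soil under 4 cm water, with two-leaf Koshihikari rice transplanted at 3 cm depth. On day 10 after transplanting, wettable powder applied to the water surface at 1 kg active ingredient per hectare. Herbicidal effect and crop safety scored on an index 21 days later.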

[11] = system: rice (Oryza sative, variety: Koshihikari); test: Paddy field treatment (Test Example 3), crop; type: in vivo, Oryza sativa; settings: transplanted rice two-leaf period, water surface treatment 10th day after transplantation, 1 kg active ingredient per hectare, evaluated 21st day, lower index = higher safety
Summary of the method: as §3

Scirpus juncoides = test: Paddy field treatment (Test Example 3); type: in vivo; settings: paddy pot, submerged 4 cm, dropped on water surface 10th day after transplantation, 1 kg active ingredient per hectare, evaluated 21st day
Summary of the method: as §3

Ammannia multiflora = test: Paddy field treatment (Test Example 3); type: in vivo; settings: paddy pot, submerged 4 cm, dropped on water surface 10th day after transplantation, 1 kg active ingredient per hectare, evaluated 21st day
Summary of the method: as §3

Monochoria vaginalis = test: Paddy field treatment (Test Example 3); type: in vivo; settings: paddy pot, submerged 4 cm, dropped on water surface 10th day after transplantation, 1 kg active ingredient per hectare, evaluated 21st day
Summary of the method: as §3

soybean (Glycine max) [12] = test: Upland soil treatment (Test Example 2), crop; type: in vivo; settings: soil surface treatment next day after sowing, 1 kg active ingredient per hectare, evaluated 21st day, lower index = higher safety
Summary of the method: as §1

[13] = system: wheat (Triticum aestivum); test: Upland soil treatment (Test Example 2), crop; type: in vivo; settings: soil surface treatment next day after sowing, 1 kg active ingredient per hectare, evaluated 21st day, lower index = higher safety
Summary of the method: as §1

Structure (SMILES) | Herbicidal activity Stellaria media (Stellaria media [1]) | Herbicidal activity Digitaria adscendens (Digitaria adscendens [2]) | Herbicidal activity Setaria viridis (Setaria viridis [3]) | Herbicidal activity Chenopodium album (Chenopodium album [4]) | Herbicidal activity Stellaria media (Stellaria media [5]) | Herbicidal activity Digitaria adscendens (Digitaria adscendens [6]) | Herbicidal activity Setaria viridis (Setaria viridis [7]) | Herbicidal activity Chenopodium album (Chenopodium album [8]) | Herbicidal activity Glycine max (soybean (Glycine max) [9]) | Herbicidal activity Triticum aestivum [10] | Herbicidal activity Echinochloa spp. (Echinochloa spp.) | Herbicidal activity Oryza sativa [11] | Herbicidal activity Scirpus juncoides (Scirpus juncoides) | Herbicidal activity Ammannia multiflora (Ammannia multiflora) | Herbicidal activity Monochoria vaginalis (Monochoria vaginalis) | Herbicidal activity Glycine max (soybean (Glycine max) [12]) | Herbicidal activity Triticum aestivum [13]
CCc1c(Br)c(-c2ccccc2)nn1CC(=COC)C(=O)OC [Compound 43] | 4 (herbicidal effect of not less than 70% by weight and less than 90% by weight) | 4 (herbicidal effect of not less than 70% by weight and less than 90% by weight) | 4 (herbicidal effect of not less than 70% by weight and less than 90% by weight) | 4 (herbicidal effect of not less than 70% by weight and less than 90% by weight) | 5 (herbicidal effect of not less than 90% by weight) | 4 (herbicidal effect of not less than 70% by weight and less than 90% by weight) | 4 (herbicidal effect of not less than 70% by weight and less than 90% by weight) | 5 (herbicidal effect of not less than 90% by weight) | 0 (herbicidal effect of not less than 0% by weight and less than 10% by weight) | 0 (herbicidal effect of not less than 0% by weight and less than 10% by weight) | 3 (herbicidal effect of not less than 50% by weight and less than 70% by weight) | 0 (herbicidal effect of not less than 0% by weight and less than 10% by weight) | 4 (herbicidal effect of not less than 70% by weight and less than 90% by weight) | 3 (herbicidal effect of not less than 50% by weight and less than 70% by weight) | 3 (herbicidal effect of not less than 50% by weight and less than 70% by weight) | 0 (herbicidal effect of not less than 0% by weight and less than 10% by weight) | 0 (herbicidal effect of not less than 0% by weight and less than 10% by weight)
COC=C(Cn1nc(-c2ccc(Cl)cc2Cl)cc1C)C(=O)OC [Compound 7] | 4 (herbicidal effect of not less than 70% by weight and less than 90% by weight) | 4 (herbicidal effect of not less than 70% by weight and less than 90% by weight) | 5 (herbicidal effect of not less than 90% by weight) | 4 (herbicidal effect of not less than 70% by weight and less than 90% by weight) | 5 (herbicidal effect of not less than 90% by weight) | 4 (herbicidal effect of not less than 70% by weight and less than 90% by weight) | 4 (herbicidal effect of not less than 70% by weight and less than 90% by weight) | 5 (herbicidal effect of not less than 90% by weight) | 0 (herbicidal effect of not less than 0% by weight and less than 10% by weight) | 0 (herbicidal effect of not less than 0% by weight and less than 10% by weight) | 4 (herbicidal effect of not less than 70% by weight and less than 90% by weight) | 0 (herbicidal effect of not less than 0% by weight and less than 10% by weight) | 3 (herbicidal effect of not less than 50% by weight and less than 70% by weight) | 4 (herbicidal effect of not less than 70% by weight and less than 90% by weight) | 4 (herbicidal effect of not less than 70% by weight and less than 90% by weight) | 0 (herbicidal effect of not less than 0% by weight and less than 10% by weight) | 0 (herbicidal effect of not less than 0% by weight and less than 10% by weight)
CO/C=C(/C(=O)OC)n1nc(-c2cccc(Cl)c2)c(Cl)c1C [Control, reference compound] | 0 (herbicidal effect of not less than 0% by weight and less than 10% by weight) | 0 (herbicidal effect of not less than 0% by weight and less than 10% by weight) | 0 (herbicidal effect of not less than 0% by weight and less than 10% by weight) | 0 (herbicidal effect of not less than 0% by weight and less than 10% by weight) | 0 (herbicidal effect of not less than 0% by weight and less than 10% by weight) | 0 (herbicidal effect of not less than 0% by weight and less than 10% by weight) | 0 (herbicidal effect of not less than 0% by weight and less than 10% by weight) | 0 (herbicidal effect of not less than 0% by weight and less than 10% by weight) | 0 (herbicidal effect of not less than 0% by weight and less than 10% by weight) | 0 (herbicidal effect of not less than 0% by weight and less than 10% by weight) | 0 (herbicidal effect of not less than 0% by weight and less than 10% by weight) | 0 (herbicidal effect of not less than 0% by weight and less than 10% by weight) | 0 (herbicidal effect of not less than 0% by weight and less than 10% by weight) | 0 (herbicidal effect of not less than 0% by weight and less than 10% by weight) | 0 (herbicidal effect of not less than 0% by weight and less than 10% by weight) | 0 (herbicidal effect of not less than 0% by weight and less than 10% by weight) | 0 (herbicidal effect of not less than 0% by weight and less than 10% by weight)
COC=C(Cn1nc(-c2cc(Cl)ccc2Cl)cc1C)C(=O)OC [Compound 8] | 4 (herbicidal effect of not less than 70% by weight and less than 90% by weight) | 4 (herbicidal effect of not less than 70% by weight and less than 90% by weight) | 4 (herbicidal effect of not less than 70% by weight and less than 90% by weight) | 4 (herbicidal effect of not less than 70% by weight and less than 90% by weight) | 5 (herbicidal effect of not less than 90% by weight) | 5 (herbicidal effect of not less than 90% by weight) | 4 (herbicidal effect of not less than 70% by weight and less than 90% by weight) | 5 (herbicidal effect of not less than 90% by weight) | 0 (herbicidal effect of not less than 0% by weight and less than 10% by weight) | 0 (herbicidal effect of not less than 0% by weight and less than 10% by weight) | 4 (herbicidal effect of not less than 70% by weight and less than 90% by weight) | 0 (herbicidal effect of not less than 0% by weight and less than 10% by weight) | 4 (herbicidal effect of not less than 70% by weight and less than 90% by weight) | 5 (herbicidal effect of not less than 90% by weight) | 5 (herbicidal effect of not less than 90% by weight) | 0 (herbicidal effect of not less than 0% by weight and less than 10% by weight) | 0 (herbicidal effect of not less than 0% by weight and less than 10% by weight)
